Here are results for two substances from patent publication US9006191B2, “Silencing of polo-like kinase expression using interfering RNA” (Protiva Biotherapeutics, Inc., priority 2007, dated 2015).

Values joined by “and” are separate entries in the source; they are usually repeats but may differ in a detail not shown here. Identical values can stand only once.

One data set deals with IFIT1 mRNA, serum IFNα. In words: In vivo immune stimulation assay in Balb/c mice (IFIT1 mRNA, serum IFNα). As to conditions: SNALP-formulated siRNA IV, 4 h.
Data set [1] has as its system human PLK-1 mRNA. In words: PLK-1 mRNA in Hep3B tumors (QuantiGene bDNA assay). The class given is in vivo. As to conditions: hepatic Hep3B tumors, single 2 mg/kg IV, 24 h. The protocol: The objectives of this study were as follows: • 1. To determine the level of mRNA silencing in established Hep3B liver tumors following a single IV administration of PLK1424 SNALP. • 2. To confirm the mechanism of mRNA silencing by detecting specific RNA cleavage products using RACE-PCR. • 3. To confirm induction of tumor cell apoptosis by histopathology.
A comparison of the effect of PEG-cDMA and PEG-cDSA 1:57 SNALPs on PLK-1 mRNA silencing was performed using established intrahepatic Hep3B tumors in scid/beige mice. A single 2 mg/kg dose of PLK-1 SNALP containing either PEG-cDMA or PEG-cDSA was administered intravenously. Liver/tumor samples were collected at 24 and 96 hours after SNALP treatment. Control=2 mg/kg Luc-cDMA SNALP at 24 hours.
Measurement of human PLK-1 and GAPDH mRNA in tumor tissues. […] Human PLK-1 and GAPDH mRNA were measured in tumor lystes by the QuantiGene bDNA assay (Panomics) as per the manufacturer's instructions (Quantigene 1.0 Manual). […] Data were expressed as mean PLK-1:GAPDH ratio+/−SD of individual animals. Tumor burden was assessed by homogenizing the complete liver from tumor bearing mice and measuring the total hGAPDH signal (RLU's) within the liver. Values were expressed as hGAPDH RLU/mg total liver.
Subcutaneous tumor models. […] The extent of PLK-1 mRNA knockdown was determined in the Hep3B tumors about 24 hours after SNALP administration.

For data set [2], the system named is anti-PEG-lipid IgG and IgM antibodies. Nature of the data set: In vivo PEG-lipid antibody induction assay. Set-up: species or system mouse. As to conditions: CD1 ICR mice, 1:57 SNALP IV at Days 0, 7, 14; plasma Days 7, 14, 21. The procedure: In vivo PEG-lipid antibody induction assays. Animal studies were performed to test for the induction of an antibody response to 2′OMe-modified PLK1424 siRNAs that were encapsulated in a 1:57 SNALP formulation containing the lipid conjugate PEG-cDMA. Six-week-old female CD1 ICR mice were used in this study. […] Mice were then sacrificed on Day 21. The tolerability of the treatment regime was monitored by animal appearance, behavior, and body weight. Anti-PEG-lipid IgG and IgM antibodies in plasma at Days 7, 14, and 21 were measured by ELISA.

The test system of the next data set is IFN-α, IFIT1 mRNA. In words: In vivo immune stimulation assay in CD1 ICR mice (plasma IFN-α, IFIT1 mRNA). Set-up: species or system mouse. The following applies: 1:57 PEG-cDMA SNALP, 3 mg/kg IV, 4 h. The protocol:
In vivo immune stimulation assays. Animal studies were performed to test for the immunostimulatory activity of SNALP containing 2′OMe-modified PLK1424 siRNAs. Six-week-old female CD1 ICR mice were used in this study. […] The tolerability of the treatment regime was monitored by animal appearance and behavior.

Data set [3] relates to human PLK-1 mRNA. Nature of the data set: 5′ RACE-PCR in HT29 cells. The data set is classed as cell-based. As to conditions: 10 nM, 24 h. The protocol:
(A) HT29 cells were treated with 10 nM SNALP-formulated PLK1424, Luc siRNA or PBS. RNA was isolated 24 hours after transfection and assayed for the specific PLK-1 mRNA cleavage product by 5′-RACE-PCR. (B) Neuro2a cells were treated with SNALP-formulated KSP2263, PLK773 siRNA or PBS. RNA was isolated 24 hours after transfection and assayed for the specific mouse KSP mRNA cleavage product by 5′-RACE-PCR.
The detection of specific RNA cleavage products generated by RISC-mediated hydrolysis of target mRNA is the definitive marker confirming RNAi as the mechanism of gene silencing (39, 40). Activated RISC cleaves target mRNA precisely between the nucleotides complementary to positions 10 and 11 of the siRNA AS strand generating an mRNA cleavage product that is unique to the siRNA sequence. This can be detected in cells using an appropriately designed 5′-rapid amplification of cDNA ends-PCR method (RACE-PCR). We developed RACE-PCR assays to detect the PLK1424-specific cleavage product of human PLK-1 mRNA and the KSP2263-specific cleavage product of mouse KSP mRNA.
5′ RNA Ligase Mediated Rapid Amplification of cDNA ends (5′ RLM RACE).

For another data set, the system named is Hep3B cells. As to conditions: SNALP-formulated siRNA, 72 h.
Data set [4] in a line: SNALP particle size and polydispersity. The class given is physicochemical.
In a further data set the test system is HepG2 cells. Nature of the data set: HepG2 cell viability assay. As to conditions: PLK1424 SNALP 0.31-5 nM, 72 h. The data set is classed as cell-based, human.

Protocol for Hep3B cells: Cell Viability Assay: Cell viability of in vitro cell cultures was assessed using the commercial reagent CellTiter-Blue® (Promega Corp.; Madison, Wis.), a resazurin dye that is reduced by metabolically active cells to the fluorogenic product resorufin. Various cancer cell lines were cultured in vitro using standard tissue culture techniques. 48-72 hours after treatment with siRNA formulations and/or chemotherapy drugs, the CellTiter-Blue® reagent was added to the culture to quantify the metabolic activity of the cells, which is a measure of cell viability.
Cell Cultures. The cell lines Hep3B, HepG2, HT29, LS174T, and Neuro2a cells were obtained from the American Type Culture Collection (ATCC; Manassas, Va.) and cultured in the recommended basal media with 10% heat inactivated FBS and 1% penicillin-streptomycin. […] For in vitro siRNA activity assays, cell lines were cultured in 96 well plates in the presence of SNALP formulated siRNA. Cell viability was assessed after 72 h using the resazurin dye CellTiter Blue (Promega Corp).
Protocol for IFIT1 mRNA, serum IFNα: Balb/c mice (n=4 per group) were administered 2.5 mg/kg siRNA or lipid vehicle; serum IFNα (pg/mL) and IFIT1 mRNA (relative to GAPDH) from whole liver lysates were assessed after 4, 8, and 16 h by ELISA and bDNA assay, respectively. […] (b) Serum IFNα and (c) liver IFIT1 mRNA were assessed 4 h after administration (mean+SD, n=4).
SNALP-formulated Luc (unmodified) and the 2′OMe-modified Luc-U/U, PLK1424-2/A, PLK773-1/B, or KSP2263-U/U siRNA were administered at 2 mg/kg i.v. to Balb/C mice. (A) IFIT1 relative to GAPDH mRNA in liver and spleen was assessed at 4 h by bDNA analysis. […] Serum IFNα was assessed at 6 h by ELISA. […] Values represent mean+SD (n=4).
IFIT1 mRNA and serum cytokines were assessed 4-6 h after SNALP administration based on the approximate time of peak response for these markers. In these studies, SNALP-formulated native Luc siRNA (Table 6) was used as a positive control for immune stimulation.
In vivo immune stimulation assays. […] 6-8 week old Balb/C mice were obtained from Harlan and subject to a two week acclimation period prior to use. Mice were administered SNALP formulated siRNA (2 mg/kg) in PBS via standard intravenous injection in the lateral tail vein. Blood was collected by cardiac puncture and processed as plasma for cytokine analysis. Liver and spleen were collected into RNALater (Sigma Co.) for IFIT1 mRNA analysis.
Measurement of IFIT1 mRNA in mouse tissues. Murine liver and spleen were processed for bDNA assay to quantitate IFIT1 mRNA as described above. The IFIT1 probe set was specific to mouse IFIT1 mRNA (positions 4-499 of NM—008331) and the GAPDH probe set was specific to mouse GAPDH mRNA (positions 9-319 of NM—008084). Data is shown as the ratio of IFIT1 relative light units (RLU) to GAPDH RLU.
Cytokine ELISA. All cytokines were quantified using sandwich ELISA kits. These were mouse interferon-α (PBL Biomedical; Piscataway, N.J.) and human and mouse IL-6 (BD Biosciences; San Diego, Calif.).

Regarding “PLK1424-2/A: 2′OMe-modified PLK1424 duplex, SEQ ID NO:214/215 (same SEQ IDs as PLK1424 1/3 of Table 11) (chain 1 AGANCACCCNCCUNAAANAUU; chain 2 UAUUUAANGAGGGUGANCUUU; siRNA; 2'-O-methyl modifications at selected positions, key for n not given here)”, the “IFIT1 mRNA induction in liver and spleen” value with IFIT1 mRNA, serum IFNα is “no measurable IFNα or increase in IFIT1 mRNA in the liver or spleen”. Also, the “tumor hPLK-1 mRNA, % of levels in PBS-treated mice” value with human PLK-1 mRNA [1] is 45%. Moreover, the “IgG / IgM antibody response against PEG-lipid (PEG-cDMA)” value in data set [2] is given as “substantially less immunogenic than SNALP containing the corresponding unmodified PLK1424 siRNA sequence”. Further, the “IFIT1 induction (QG analysis)” value in the data set on IFN-α, IFIT1 mRNA is “no significant IFIT1 induction above that of empty SNALP”. Further, in the data set with human PLK-1 mRNA [3], the “PLK-1 mRNA cleavage product by 5′ RACE-PCR” value is recorded as “generated the predicted 476 bp 5′ RACE-PCR product”.

Consider “PLK1424: siRNA to human PLK-1, SEQ ID NO:1/2 (UU overhang form 211/212) (chain 1 AGAUCACCCUCCUUAAAUA; chain 2 UAUUUAAGGAGGGUGAUCU; further chemistry not given here)”, for which, in the data set on Hep3B cells, the “cell viability / anti-proliferative activity” value is “potent activity”. The “mean SNALP particle size” value in data set [4] was 83 nm and 72 nm. Also, in the data set with HepG2 cells, the cell viability entry is on record as “potent activity”.
